Experimental data published in the NIST ThermoML archive (doi:10.1016/j.jct.2015.05.027).

Settings: Liquid, Vibrating tube method

CCC(C)O (stereo not given) [butan-2-ol]
mass density [kg/m3]
Settings | 333.15 K | 353.21 K | 373.24 K | 393.27 K
100 kPa | – | 750.3 | – | –
1000 kPa | – | 751.4 | 729.1 | 704.8
5000 kPa | – | 756 | 734.5 | 711.4
10000 kPa | – | 761.3 | 740.8 | 718.8
15000 kPa | – | 766.4 | 746.6 | 725.6
20000 kPa | – | 771 | 751.9 | 731.7
25000 kPa | – | 775.4 | 757 | 737.4
30000 kPa | – | 779.5 | 761.6 | 742.7
35000 kPa | – | 783.5 | 766.1 | 747.8
40000 kPa | – | 787.2 | 770.4 | 752.5
45000 kPa | 806.6 | 790.8 | 774.4 | 757
50000 kPa | 809.7 | 794.5 | 778.1 | 761.2
55000 kPa | 812.8 | 797.7 | 781.9 | 765.4
60000 kPa | 815.8 | 801 | 785.4 | 769.2
65000 kPa | 818.7 | 804.1 | 788.8 | 773
70000 kPa | 821.4 | 807.2 | 792.1 | 776.6
80000 kPa | 826.7 | 812.9 | 798.5 | 783.4
90000 kPa | 831.9 | 818.3 | 804.3 | 789.8
100000 kPa | 836.7 | 823.5 | 809.8 | 795.8
110000 kPa | 841.2 | 828.5 | 815.1 | 801.5
120000 kPa | 845.5 | 833.1 | 820.1 | 806.8
130000 kPa | 849.8 | 837.6 | 824.9 | 811.9
140000 kPa | 853.8 | 842 | 829.5 | 816.8
